These results are taken from PubChem BioAssay (NCI).

Experiment in all cases: NCI-60 cell line screen, 48 h
Test [1] relates to RPMI-8226 leukemia.
Test [2] concerns IGROV1 ovarian.
The subject of test [3] is SK-MEL-5 melanoma.
In test [4] the test system is OVCAR-5 ovarian.
The subject of test [5] is HCT-116 colon.
Test [6] relates to SNB-19 CNS.
For test [7], the system named is PC-3 prostate.
The subject of test [8] is A498 renal.
Test [9] deals with NCI/ADR-RES ovarian.
Test [10] has as its system SNB-75 CNS.

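Tested at 5 concentrations; 48 h exposure; 96-well plates; endpoints linearly interpolated, else capped at highest concentration. TGI marks complete inhibition of growth.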

For the molecule `N#CC(c1ccccc1)c1cccc2ccccc12` (stereo not drawn), the TGI in test [1] was 67.9 µM; in [2] it was above 100 µM; in test [3], 34.3 µM; in test [4], above 100 µM; in [5], above 100 µM; in test [6], above 100 µM. The TGI in test [7] was 71.6 µM; in test [8] it was 76.5 µM; in [9] it was above 100 µM; in [10] it was above 100 µM.

For `CN(C)Cc1cc(N=Nc2ccc(Cl)c(Cl)c2)ccc1O`, the TGI is 38.8 µM in test [1]; 15.9 µM in test [2]; 25.2 µM in test [3]; 29.8 µM in [5]; 27.6 µM in test [6]; 23.8 µM in test [7]. Further, the values for the TGI in [8], in test [9] and in [10] were 23.9 µM, 23.5 µM and 20.3 µM, respectively.

For the molecule `O=C1CC(O)c2c(Cl)sc(Cl)c21` (stereo not drawn), the TGI amounted to 59.7 µM in test [1]; 22.1 µM in [2]; 43.5 µM in test [3]; 33 µM in [4]; 13.8 µM in [5]; 40.2 µM in [6]. The TGI worked out at 28.5 µM in test [7], 42.6 µM in test [8], 59.2 µM in test [9] and 29.5 µM in test [10].

As to `C=C(Br)CN(C#N)CC(=C)Br`, the TGI in test [1], in test [2], in [3], in test [4], in test [5] and in test [6] was above 100 µM each time. Besides, the TGI in test [7], in [8], in test [9] and in [10] was above 100 µM in each case.

Turning to `COC(=O)C(Cc1ccccc1)NC(=O)CNC(=O)CSc1nnc(COc2ccc(Cl)cc2)n1-c1ccccc1` (stereo not drawn), the TGI came out at 21.8 µM in test [1]; 29.1 µM in test [2]; 29.8 µM in test [3]; 33.6 µM in test [4]; 33 µM in test [5]; 31.4 µM in [6]. Also, the TGI in test [7] came to 31.3 µM; in test [8], 29.4 µM; in test [9], 42 µM; in test [10], 37.1 µM.

On to `COc1ccc2c(c1)CC[C@@H]1[C@@H]2CC[C@]2(C)/C(=N/OCCN3CCCCC3)CC[C@@H]12`, for which the TGI in test [1] is 6.35 µM; in test [2], 5.6 µM; in [3], 6.27 µM; in test [4], 16.6 µM; in test [5], 5.67 µM; in test [6] it was 21 µM. The TGI in test [7] was found to be 17.7 µM; in test [8], 23 µM; in test [9] it was 24.2 µM; in [10], 18.2 µM.

Turning to `COc1cc(C2c3cc4c(cc3OC(N3CCOCC3)C2C)OCO4)cc(OC)c1O` (stereo not drawn), the TGI in test [1] was above 100 µM; in [2] it was above 70.8 µM; in test [3], 17.5 µM; in test [4] it was above 100 µM; in [5], 11.4 µM; in [6], above 75.1 µM. For the same molecule, the TGI was above 86.2 µM in test [7], 41.2 µM in test [8], 18.4 µM in test [9] and 7.64 µM in [10].

With `CC(=O)Oc1ccc2c(c1)CC[C@@H]1C2[C@@H](O[N+](=O)[O-])C[C@@]2(C)C1CC[C@@H]2O` (stereo partly drawn), the TGI in [1] is 69.7 µM; in test [2], above 100 µM; in test [3] it was above 100 µM; in test [4], above 71.8 µM; in test [5], above 100 µM; in [6], above 100 µM. The TGI in [7] is above 100 µM; in test [8] it was 72.5 µM; in test [9], 97.3 µM; in test [10] it was above 85.2 µM.

For `Cn1c2ccccc2n2c3nc4ccccc4nc3c(C#N)c12`, the TGI in [1], in test [2], in [3], in test [4], in test [5] and in test [6] was above 100 µM in each case. Moreover, the TGI in test [7] is above 100 µM; in test [8], 9.72 µM; in test [9], above 100 µM; in [10], above 100 µM.

For the molecule `O=[N+]([O-])C(=C(NCc1ccccc1)NCc1ccccc1)C(Cl)=C(Cl)Cl`, the TGI in [1] was 68.4 µM; in [2] it was above 100 µM; in test [3], 36 µM; in [5], above 100 µM; in [6], above 100 µM; in [7], above 100 µM. Also, the TGI in test [8] is above 100 µM; in [9] it was above 100 µM; in [10], 43.5 µM.

For the molecule `Cc1nn(-c2ccccc2)c(C)c1/C=N/NC(=O)c1sc(=S)n(-c2ccccc2)c1N`, the TGI in test [1] is 31.2 µM; in test [2] it was 1.79 µM; in [3] it was above 100 µM; in test [4] it was above 100 µM; in [5], 34.5 µM; in test [6], above 100 µM. Besides, the TGI in [7] is above 100 µM; in [8], 59.3 µM; in test [9], above 100 µM; in test [10], 3.98 µM.

`CN(C)CCOc1ccc(-c2c(Oc3ccc(Cl)cc3)c(=O)oc3ccccc23)cc1`: the TGI in test [1] is 43.6 µM; in test [2] it was 19.2 µM; in test [3] it was 4.55 µM; in [4] it was 35.7 µM; in test [5], above 32.9 µM; in test [6], above 46 µM. The TGI in test [7] is 30.1 µM; in [8], 43 µM; in test [9], above 52.1 µM; in test [10], 25.3 µM.

Take `CSc1n[n+](C)cc(N)c1N`: the TGI in test [1] is above 100 µM; in test [2] it was above 100 µM; in test [3], above 100 µM; in test [4], above 100 µM; in [5] it was above 100 µM; in test [6] it was 97.7 µM. Also, the TGI in test [7], in test [8], in test [9] and in test [10] was above 100 µM throughout.
